Structures can show the parent of a compound that is named as a salt.
Assays:
Conditions in all cases: 24 h
U2OS [1] = assay: nuclei count in HPG assay relative to DMSO (% of DMSO); higher = more viable cells
Protocol: (§1)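 Validation screen in U2OS cells: hits tested at 1, 3 and 10 uM for 24 h in duplicate plates. Translation was read by OPP incorporation (1 h pulse) and HPG incorporation (30 min in methionine-free medium), quantified by high-throughput microscopy alongside nuclei counts. All values are normalised to DMSO (= 100).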

U2OS [2] = assay: nuclei count in OPP assay relative to DMSO (% of DMSO); higher = more viable cells
Protocol: as §1

U2OS [3] = assay: mean HPG incorporation (global translation) relative to DMSO (% of DMSO); higher = more protein synthesis
Protocol: as §1

U2OS [4] = assay: mean OPP incorporation (global translation) relative to DMSO (% of DMSO); higher = more protein synthesis
Protocol: as §1

Row | Compound | nuclei count in HPG assay (U2OS [1]; 1 µM) | nuclei count in HPG assay (U2OS [1]; 3 µM) | nuclei count in HPG assay (U2OS [1]; 10 µM) | nuclei count in OPP assay (U2OS [2]; 1 µM) | nuclei count in OPP assay (U2OS [2]; 3 µM) | nuclei count in OPP assay (U2OS [2]; 10 µM) | mean HPG incorporation (U2OS [3]; 1 µM) | mean HPG incorporation (U2OS [3]; 3 µM) | mean HPG incorporation (U2OS [3]; 10 µM) | mean OPP incorporation (U2OS [4]; 1 µM) | mean OPP incorporation (U2OS [4]; 3 µM) | mean OPP incorporation (U2OS [4]; 10 µM)
1 | CC(C)(C)c1nc(-c2cccc(NS(=O)(=O)c3c(F)cccc3F)c2F)c(-c2ccnc(N)n2)s1 | 96.6 | 100 | 104 | 101 | 102 | 104 | 50.8 | 48 | 106 | 102 | 97.2 | 114
2 | CCn1c(-c2nonc2N)nc2cnc(Oc3cccc(NC(=O)c4ccc(OCCN5CCOCC5)cc4)c3)cc21 | 99 | 96.3 | 76.4 | 102 | 101 | 82.6 | 73.1 | 71.8 | 76.4 | 97.1 | 97.5 | 97.5
3 | COc1cc(COc2cc(N)c(Cl)cc2C(=O)CCC2CCN(CCNS(C)(=O)=O)CC2)cc(OC)c1 | 100 | 106 | 90.1 | 95.1 | 97.5 | 79.8 | 82.2 | 83.4 | 58.1 | 121 | 122 | 120
4 | COc1cc(NC(=O)c2ccccn2)ccc1Cl | 103 | 95 | 96.2 | 105 | 91 | 88.2 | 106 | 113 | 116 | 83.8 | 79.6 | 70.9
5 | COc1cc2c(cc1C(F)(F)F)N(C(=O)Nc1cc(F)cc(-c3cccnc3)c1)CC2 | 95.9 | 95 | 89 | 96.9 | 93.9 | 88.4 | 95.1 | 98.3 | 74.3 | 102 | 112 | 117
6 | C[C@@H]1CN(CC(=O)Nc2ccc3c(c2)Cc2cccc(-c4cc(=O)cc(N5CCOCC5)o4)c2S3)C[C@H](C)O1 | 98.7 | 89.5 | 81.6 | 96.9 | 88 | 92.3 | 70.2 | 64.9 | 55 | 103 | 108 | 102
7 | Cc1c(C)c2c(c(C)c1O)CC[C@](C)(CN1CCN(c3cc(N4CCCC4)nc(N4CCCC4)n3)CC1)O2 | 94.9 | 102 | 98 | 95.4 | 101 | 102 | 90.2 | 93.4 | 87.1 | 98.2 | 97.2 | 111
8 | O=c1cc(N2CCOCC2)oc2c(-c3cccc4c3sc3ccccc34)cccc12 | 96.8 | 89.5 | 79.6 | 97.4 | 87.4 | 89.1 | 66.7 | 74.8 | 61.8 | 92.6 | 107 | 104
9 | COc1ccccc1N1CCN(CCN2C(=O)c3ccccc3C(C)(C)C2=O)CC1 [ARC 239 dihydrochloride] | 106 | 101 | 98.3 | 98.8 | 101 | 100 | 102 | 116 | 122 | 100 | 117 | 120
10 | CNC(=O)c1cccc(-c2ccc3c(N4CCOC[C@@H]4C)nc(N4CCOC[C@@H]4C)nc3n2)c1 [AZD2014] | 84.1 | 78 | 75 | 85.4 | 79.4 | 72.2 | 44.3 | 36.7 | 34.8 | 57.6 | 36.3 | 35.6
11 | COc1cc(C)c(/C=C/C(C)=C/C=C/C(C)=C/C(=O)O)c(C)c1C [Acitretin] | 91.8 | 95.3 | 95.7 | 91.4 | 89.8 | 94.2 | 99.8 | 108 | 87 | 107 | 109 | 109
12 | CCC(=O)CCCCC[C@@H]1NC(=O)[C@H]2CCCCN2C(=O)[C@H]([C@@H](C)CC)NC(=O)[C@H](Cc2cn(OC)c3ccccc23)NC1=O [Apicidin] | 108 | 96.3 | 88 | 106 | 95.4 | 91.7 | 132 | 135 | 85 | 92.2 | 83.9 | 55.8
13 | Cc1c(CN2CCN(C(=O)[C@H](C)O)CC2)sc2c(N3CCOCC3)nc(-c3cnc(N)nc3)nc12 [Apitolisib (GDC-0980, RG7422)] | 80.7 | 76.3 | 75 | 72.8 | 76.9 | 73.3 | 44.1 | 40.7 | 41.4 | 60.3 | 35.8 | 35.4
14 | Cc1c(-c2ccc(O)cc2)n(Cc2ccc(OCCN3CCCCCC3)cc2)c2ccc(O)cc12 [Bazedoxifene HCl] | 103 | 98.5 | 80.3 | 96.8 | 86.5 | 77.9 | 84.1 | 84.9 | 85.2 | 109 | 121 | 133
